The record followed here is US20260209152A1, “Substituted Hydroxystilbene Compounds and Derivatives, Synthesis and Uses Thereof” (Kynan Duke IP, LLC, priority 2019, published 2026).

Assay [1] deals with IL-8 release from IL-17A and TNFα-induced primary human keratinocytes. Nature of the assay: Keratinocyte IL-8 release (assay number 1250). As to conditions: for EC50 / Emax: Homo sapiens, Keratinocyte; for Max Eff.: IL-8 (1250): highest effect as percentage of control maximum effect; for Emax: read-out: maximum efficacy, IL-8 release. It is filed as cell-based. The protocol: Inhibition of IL-8 release from IL-17A and TNFα-induced primary human keratinocytes LEO Pharma Open Innovation assay number 1250 openinnovation.leo-pharma.com
The inflammatory skin disease psoriasis is characterized by cytokines IL-17A and TNFα. In the present assay, primary human keratinocytes are stimulated with a mixture of these cytokines, and the release of IL-8 (also called CXCL8) is measured in the culture supernatant by proximity homogenous time-resolved fluorescence (HTRF).
• Detach the cells as described above. • Resuspend pellet in 10 ml EpiLife Medium with HKGS Kit but without hydrocortisone • Filter the cells though a 37 µm strainer. • Count cells using a cell counter. • Seed Human Epidermal Keratinocytes, adult (HEKa) cells in 384-well view plates 3500 c/w/40 μL. Use cell media with supplement but without hydrocortisone as assay medium. • Place the plates with lids on in a humidity chamber with lid (24.5×24.5 cm box added H2O in the bottom). • Incubate plates over night at 37° C., 5% CO2/95% air.
• Prepare compound-containing source plate, i.e. titrations in DMSO to be transferred to the assay plate. • Empty the assay plate, and re-add 25 μL assay medium. • Add 75 nL compounds and controls from the source plate to the assay plate (with cells). • Add 25 μL assay medium and incubate for 2 hours. • Add 25 μL stimulation mix in assay medium (recombinant human interleukin 17A and Tumor necrosis factor-alpha) to give a final concentration of 10 ng/mL of both cytokines. • Incubate plates at 37° C., 5% CO2/95% air for 3 days.
• Remove plates from incubation and equilibrate to room temperature for 30 minutes. • Transfer 2 μL supernatant to white proxi 384-well plates for IL-8 detection. • Add 2 μL assay medium • Prepare IL-8 HTRF mix (according to manufactory protocol) and add 2 μL pr well. • Seal and incubate for 3 hours and read fluorescence in a plate reader.
IL-8 concentration in the supernatant is measured using homogeneous time-resolved fluorescence resonance (TR-FRET). The assay is quantified by measuring fluorescence at 665 nm (proportional to IL8 concentration) and 620 nm (control). A ratio 665/620*1000 is calculated as a representation of the amount of IL-8 in the supernatant.

Assay [2] relates to IL-4 secretion from human CD4-positive T-cells stimulated with antiCD2/antiCD3/antiCD28-coated beads. Briefly: T-cell IL-4 assay (assay number 1297, 1298). It is filed as cell-based. The note with it: for Max Eff.: IL-4 (1298): highest effect as percentage of control maximum effect; for Emax: read-out: maximum efficacy, IL-4 secretion. The protocol: Inhibition of IL-4 and IL-2 secretion from human CD4-positive T-cells stimulated with antiCD2/antiCD3/antiCD28-coated beads. LEO Pharma Open Innovation assay number 1297, 1298, 1299.
The inflammatory skin disease atopic dermatitis is characterized by the T-cell cytokines IL-4, IL-13 and IL-22. In the present assay, human T-cells are stimulated with beads coated with antibodies against CD2, CD3 and CD28 to activate the T-cell receptor.
Then the level of secreted of IL-4 is measured in the culture supernatant using electrochemiluminescence (MSD kits, Meso Scale Discovery), IL-2 is measured by proximity homogenous time-resolved fluorescence (HTRF) and the amount of living cells is measured by addition of resazurin (PrestoBlue®) to allow identifying compounds that inhibit T-cell proliferation or viability.
• Peripheral blood mononuclear cells (PBMC) are isolated from fresh human buffy coats by centrifugation on Lymphoprep® following instructions from Sebmate™ (Stemcell). • The cells are resuspended in 30 ml of PBS+2% Serum and counted. • CD4 positive T-cells are isolated from freshly isolated PBMC using EasySep™ humane CD4+ T-cell Isolation Kit (Catalog #17952) and following the manufacturer's protocol. • Cells are spun down and resuspended in freezing medium (X-vivo 15+10% FBS+5% DMSO) • Cells are frozen in aliquots of 3×10^7 cells/vial matching one 384 plate. Cells are place in Coolcell box and place in −80° C. freezer for one day then transferred to the −150° C. freezer in a prechilled box.
• Prepare assay medium: 500 ml X-Vivo 15+5 ml Glutamax (2 mM final)+5 ml pen/strep (100 U/ml final). • Add 5 μL medium to the wells of a 384 well plate (Greiner cat. No 788986). • CD4+ Cells: Thaw frozen cells from −150° C. freezer in 37° C. bath, and pipette the cells into 10 ml medium. Spin 10 min @170 g. • Resuspend pellet in 3.5 ml per 2.5×10^7 cells and add 10 μL per well to the plate (40000 cells/well) • Test compounds: Prepare compound-containing source plate, i.e. titrations in DMSO to be transferred to the assay plate. • Add 25 nL compounds and controls from the source plate to the assay plate (with cells). • Beads (T Cell Activation/Expansion Kit-human, Miltenyi Biotech, cat. no. 130-091-441): Coat beads with antibodies according to the kit procedure. • Add 10 μL beads to each well except for the negative controls. One bead per cell. Add 10 μL medium to the negative controls. • Incubate plates at 37° C., 5% CO2/95% air for 2 days.
• Remove plates from incubation and equilibrate to room temperature for 30 minutes. • IL-4 concentration in 10 μL supernatant is measured using an MSD IL-4 384-plate kit (Custom made) according to manufacturer protocol. • IL-2 concentrations in the supernatant is measured by an IL-2 HTRF kit, CisBio, cat. No 62HIL02PEH. • Add 4 μL medium to white proxi 384-well plates • Add 1 μL supernatant. • Add 4 μL mHTRF mix (each diluted 1:300 in ⅔ reconstitution buffer and ⅓ assay medium). • Spin the plates for 1 minute at 170 g • Seal and incubate overnight and read fluorescence in a plate reader • The amount of viable cells is measured by PrestoBlue® reagent • Add 15 μL diluted PrestoBlue® reagent (resazurin) corresponding to 2.5 μL Prestoblue/well to the assay plate. • Incubate overnight at 37° C./5% CO2. The fluorescence in the wells is measured (Ex615/Em 535).
IL-4 concentration in the supernatants is measured using electrochemiluminescence (MSD kits, Meso Scale Discovery). IL-2 concentration in the supernatants is measured using homogeneous time-resolved fluorescence resonance (TR-FRET). The assay is quantified by measuring fluorescence at 665 nm (proportional to IL-2 concentration) and 620 nm (control). A ratio 665/620*1000 is calculated.
The capacity of the test compound to inhibit IL-4 and IL-2 release is normalized to the signal in the negative control wells with un-stimulated T-cells.

The mark [3] stands for this setting: inhibition of IL-8 release, IL-17A and TNFα-induced keratinocytes, read-out: Abs EC50: IL-8 (1250).
Setting [4] is: inhibition of IL-4 secretion, human CD4-positive T-cells, read-out: Abs EC50: IL-4 (1298).
Where [5] appears, read: read-out: EC50, inhibition of IL-8 release.
Where [6] appears, read: Homo sapiens, CD4 positive, read-out: EC50, inhibition of IL-4 secretion.

SMILES strings stand for the structures. Where two headings read alike, the source gives them in different places.

In the case of `COc1cc(/C=C/c2cc(O)cc(OC)c2CC=C(C)C)ccc1O` [Compound 1, (E)-3-(4-hydroxy-3-methoxystyryl)-5-methoxy-4-(3-methylbut-2-en-1-yl)phenol], the 50% effective concentration (EC50) in assay [1] (setting [3]) was 80 nM; in assay [2] (setting [4]), 2930 nM. For the same compound, the “Max Eff.: IL-8 (1250)” value in assay [1] is given as 94%. In addition, the “Max Eff.: IL-4 (1298)” value in assay [2] is 70%.

Regarding `CCOc1cc(O)cc(/C=C/c2ccc(O)c(OC)c2)c1CC=C(C)C` [Compound 8, (E)-3-Ethoxy-5-(4-hydroxy-3-methoxystyryl)-4-(3-methylbut-2-en-1-yl)phenol], the 50% effective concentration (EC50) in assay [1] (setting [3]) was 37 nM; in assay [2] (setting [4]) it was 503 nM. In addition, the “Max Eff.: IL-8 (1250)” value in assay [1] came out at 107%. Further, the “Max Eff.: IL-4 (1298)” value in assay [2] was found to be 82%.

Consider `CCOc1cc(O)cc(/C=C/c2ccc(O)c(O)c2)c1CC=C(C)C` [Compound 20, (E)-4-(3-Ethoxy-5-hydroxy-2-(3-methylbut-2-en-1-yl)styryl)benzene-1,2-diol], for which the EC50 was 321 nM in assay [1] (setting [3]) and 5000 nM in assay [2] (setting [4]). Moreover, the “Max Eff.: IL-8 (1250)” value in assay [1] came to 93%. Moreover, the “Max Eff.: IL-4 (1298)” value in assay [2] worked out at 54%.

On to `COc1cc(/C=C/c2cc(O)cc(OC)c2CC=C(C)C)ccc1NC=O` [Compound 27, (E)-N-(4-(5-hydroxy-3-methoxy-2-(3-methylbut-2-en-1-yl)styryl)-2-methoxyphenyl)formamide], for which the concentration giving a half-maximal response (EC50) in assay [1] (setting [3]) worked out at 46 nM; in assay [1] (setting [5]), 46 nM; in assay [2] (setting [6]), 507 nM; in assay [2] (setting [4]), 507 nM. Moreover, the Emax in assay [1] was 75%; in assay [2] (Homo sapiens, CD4 positive), 79%. Moreover, the “Max Eff.: IL-8 (1250)” value in assay [1] came out at 75%. Moreover, the “Max Eff.: IL-4 (1298)” value in assay [2] came out at 79%.

Regarding `CCOc1cc(O)cc(/C=C/c2ccc(NC=O)c(OC)c2)c1CC=C(C)C` [Compound 28, (E)-N-(4-(3-Ethoxy-5-hydroxy-2-(3-methylbut-2-en-1-yl)styryl)-2-methoxyphenyl)formamide], in assay [1], the “reduction of IL-8 release, in words” value was “medium potency reduction of IL-8 release”. Moreover, the concentration giving a half-maximal response (EC50) in assay [1] (setting [3]) is 44 nM; in assay [1] (setting [5]), 44 nM; in assay [2] (setting [6]), 278 nM; in assay [2] (setting [4]), 278 nM. Also, the Emax was 85% in assay [1] and 80% in assay [2] (Homo sapiens, CD4 positive). The “Max Eff.: IL-8 (1250)” value in assay [1] amounted to 85%. In addition, in assay [2], the “effect on IL-4 release, in words” value is listed as “medium potency effect”. Also, the “Max Eff.: IL-4 (1298)” value in assay [2] stood at 80%.

Regarding `COc1cc(/C=C/c2cc(O)cc(OC)c2CC=C(C)C)ccc1NC(=O)CN` [Compound 31, (E)-2-amino-N-(4-(5-hydroxy-3-methoxy-2-(3-methylbut-2-en-1-yl)styryl)-2-methoxyphenyl)acetamide], the results for the EC50 in assay [1] (setting [3]) and in assay [2] (setting [4]) were 364 nM and 5000 nM, respectively. Further, the “Max Eff.: IL-8 (1250)” value in assay [1] came out at 105%. Besides, in assay [2], the “Max Eff.: IL-4 (1298)” value was determined as 29%.

In the case of `CCOc1cc(O)cc(/C=C/c2ccc(NC(=O)C(=O)O)c(OC)c2)c1CC=C(C)C` [Compound 35, (E)-2-((4-(3-Ethoxy-5-hydroxy-2-(3-methylbut-2-en-1-yl)styryl)-2-methoxyphenyl)amino)-2-oxoacetic acid], the concentration for a half-maximal effect (EC50) worked out at 2950 nM in assay [1] (setting [3]) and 5000 nM in assay [2] (setting [4]). Moreover, the “Max Eff.: IL-8 (1250)” value in assay [1] is 77%. Besides, the “Max Eff.: IL-4 (1298)” value in assay [2] was found to be 11%.
